We go through eight compounds from article PMC9604064, “Comparative Assessment of the Inhibitory Potential of the Herbicide Glyphosate and Its Structural Analogs on RGD-Specific Integrins Using Enzyme-Linked Immunosorbent Assays” (International Journal of Molecular Sciences, 2022).

Entries after “also recorded” stand apart in the source; their conditions may differ. Where two headings read alike, the source gives them in different places.

What is called inhibition is the drop in the measured response relative to a control, in per cent. The IC50 is the concentration at which inhibition is half-maximal. Lower therefore signals greater potency.

Series [1] addresses T1, integrin αVβ3 (Homo sapiens, UniProt P05106+P06756).
T1 construct: purchased R&D Systems Inc. (Minneapolis, MN, USA)
As to the kind of experiment: biochemical. Type of series: binding. Conditions: for inhibition: read-out: Maximal Inhibition Achieved (converted).

The target in series [2] is T1, integrin αVβ3. As to the kind of experiment: biochemical. The class given is binding. Conditions: for inhibition: at 22 mM (highest concentration), read-out: Maximal Inhibition Achieved (converted).
Series [3] has as its target T2, integrin α5β1 (Homo sapiens, UniProt P05556+P08648).
T2 construct: purchased R&D Systems Inc. (Minneapolis, MN, USA)
As to the kind of experiment: biochemical. The class given is binding. Conditions: for inhibition: at 22 mM (highest concentration), read-out: Maximal Inhibition Achieved (converted).

Series [4] has as its target T3, integrin αllbβ3 (Homo sapiens, UniProt P05106+P08514).
T3 construct: purchased Enzyme Research Laboratories Ltd. (Swansea, UK)
As to the kind of experiment: biochemical. Type of series: binding.

For series [5] the following is noted: cited from earlier work.
Series [6] deals with T1, integrin αVβ3. Type of series: binding. Conditions: immobilized SARS-CoV-2 S-protein; maximal inhibition, range up to 22 mM.
For series [7], the target named is T1, integrin αVβ3. Conditions: at 11 mM; previously developed assay; cited from earlier work.
Series [8] deals with MC3T3-E1 cells. Conditions: biosensoric measurement, concentration-dependent, via blocking RGD-specific integrins; cited from earlier work.
On the set-up of series [9]: method as in earlier work. Conditions: not marked *; octanol/water; cited from earlier work.
Where [10] appears, read: integrin αVβ3, immobilized RGD polymer, ligand range 0.1-22 mM.
The mark [11] stands for this setting: integrin αVβ3, immobilized vitronectin.
Where [12] appears, read: integrin αVβ3, immobilized vitronectin, ligand range 0.1-22 mM.
Where [13] appears, read: integrin α5β1, immobilized RGD polymer.
Where [14] appears, read: integrin α5β1, immobilized RGD polymer, ligand range 0.1-22 mM.
Setting [15] is: integrin αllbβ3, immobilized fibrinogen, ligand range 0.1-22 mM.
Setting [16] is: integrin αVβ3, immobilized RGD polymer, at 22 mM (highest concentration).
[17] abbreviates: integrin αllbβ3, immobilized fibrinogen, at 22 mM, activation = higher absorbance than negative control, n. d. = not detected.

T3 sequence (P08514 32-887 limits assumed): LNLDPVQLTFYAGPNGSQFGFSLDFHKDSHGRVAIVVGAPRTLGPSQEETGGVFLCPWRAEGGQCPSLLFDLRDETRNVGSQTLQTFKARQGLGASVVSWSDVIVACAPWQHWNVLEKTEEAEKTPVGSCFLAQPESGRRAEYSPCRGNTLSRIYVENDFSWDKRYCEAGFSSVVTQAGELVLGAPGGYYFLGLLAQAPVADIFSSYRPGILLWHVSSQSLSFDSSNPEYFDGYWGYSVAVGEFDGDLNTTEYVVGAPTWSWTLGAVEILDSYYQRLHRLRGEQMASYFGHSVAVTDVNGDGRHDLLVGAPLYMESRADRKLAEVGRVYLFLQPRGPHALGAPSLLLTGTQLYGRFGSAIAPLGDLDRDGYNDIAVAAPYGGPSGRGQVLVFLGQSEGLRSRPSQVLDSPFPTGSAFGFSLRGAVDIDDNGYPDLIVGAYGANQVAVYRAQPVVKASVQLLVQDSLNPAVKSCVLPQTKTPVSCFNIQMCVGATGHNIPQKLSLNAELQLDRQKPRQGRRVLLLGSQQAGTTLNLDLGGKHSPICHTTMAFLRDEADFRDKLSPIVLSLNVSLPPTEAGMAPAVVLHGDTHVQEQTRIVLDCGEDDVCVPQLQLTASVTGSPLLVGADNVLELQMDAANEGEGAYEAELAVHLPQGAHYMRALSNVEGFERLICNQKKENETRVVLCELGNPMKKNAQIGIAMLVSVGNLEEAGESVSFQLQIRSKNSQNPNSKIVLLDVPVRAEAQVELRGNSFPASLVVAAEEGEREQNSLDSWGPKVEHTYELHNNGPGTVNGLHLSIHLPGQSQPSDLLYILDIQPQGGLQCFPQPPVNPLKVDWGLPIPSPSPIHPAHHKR
T3 sequence (P08514 891-1039 partner limits assumed): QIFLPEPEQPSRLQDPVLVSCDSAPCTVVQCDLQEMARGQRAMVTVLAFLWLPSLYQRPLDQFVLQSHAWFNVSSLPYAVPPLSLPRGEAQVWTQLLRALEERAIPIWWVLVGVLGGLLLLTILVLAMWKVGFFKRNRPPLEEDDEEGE
T3 sequence (P05106 27-788): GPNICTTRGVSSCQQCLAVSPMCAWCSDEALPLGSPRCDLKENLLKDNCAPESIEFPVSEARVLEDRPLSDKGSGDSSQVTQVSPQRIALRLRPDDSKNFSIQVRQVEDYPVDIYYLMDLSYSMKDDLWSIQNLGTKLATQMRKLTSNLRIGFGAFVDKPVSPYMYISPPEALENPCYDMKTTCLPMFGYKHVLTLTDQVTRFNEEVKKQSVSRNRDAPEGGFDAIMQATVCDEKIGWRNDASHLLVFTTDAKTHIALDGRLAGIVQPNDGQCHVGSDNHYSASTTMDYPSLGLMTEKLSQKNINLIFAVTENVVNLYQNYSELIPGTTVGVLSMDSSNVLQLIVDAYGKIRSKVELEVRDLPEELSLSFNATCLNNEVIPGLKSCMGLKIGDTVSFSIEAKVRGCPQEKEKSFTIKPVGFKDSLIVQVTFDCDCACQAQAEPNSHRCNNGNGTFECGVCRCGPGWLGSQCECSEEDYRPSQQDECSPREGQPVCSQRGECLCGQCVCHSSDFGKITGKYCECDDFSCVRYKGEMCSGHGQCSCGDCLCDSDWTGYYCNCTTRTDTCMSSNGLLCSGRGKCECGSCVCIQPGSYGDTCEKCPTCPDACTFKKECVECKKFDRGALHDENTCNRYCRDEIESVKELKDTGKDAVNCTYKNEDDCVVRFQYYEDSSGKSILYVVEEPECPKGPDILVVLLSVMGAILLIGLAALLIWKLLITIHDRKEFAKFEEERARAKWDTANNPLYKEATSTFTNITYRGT
T1 sequence (P06756 31-992): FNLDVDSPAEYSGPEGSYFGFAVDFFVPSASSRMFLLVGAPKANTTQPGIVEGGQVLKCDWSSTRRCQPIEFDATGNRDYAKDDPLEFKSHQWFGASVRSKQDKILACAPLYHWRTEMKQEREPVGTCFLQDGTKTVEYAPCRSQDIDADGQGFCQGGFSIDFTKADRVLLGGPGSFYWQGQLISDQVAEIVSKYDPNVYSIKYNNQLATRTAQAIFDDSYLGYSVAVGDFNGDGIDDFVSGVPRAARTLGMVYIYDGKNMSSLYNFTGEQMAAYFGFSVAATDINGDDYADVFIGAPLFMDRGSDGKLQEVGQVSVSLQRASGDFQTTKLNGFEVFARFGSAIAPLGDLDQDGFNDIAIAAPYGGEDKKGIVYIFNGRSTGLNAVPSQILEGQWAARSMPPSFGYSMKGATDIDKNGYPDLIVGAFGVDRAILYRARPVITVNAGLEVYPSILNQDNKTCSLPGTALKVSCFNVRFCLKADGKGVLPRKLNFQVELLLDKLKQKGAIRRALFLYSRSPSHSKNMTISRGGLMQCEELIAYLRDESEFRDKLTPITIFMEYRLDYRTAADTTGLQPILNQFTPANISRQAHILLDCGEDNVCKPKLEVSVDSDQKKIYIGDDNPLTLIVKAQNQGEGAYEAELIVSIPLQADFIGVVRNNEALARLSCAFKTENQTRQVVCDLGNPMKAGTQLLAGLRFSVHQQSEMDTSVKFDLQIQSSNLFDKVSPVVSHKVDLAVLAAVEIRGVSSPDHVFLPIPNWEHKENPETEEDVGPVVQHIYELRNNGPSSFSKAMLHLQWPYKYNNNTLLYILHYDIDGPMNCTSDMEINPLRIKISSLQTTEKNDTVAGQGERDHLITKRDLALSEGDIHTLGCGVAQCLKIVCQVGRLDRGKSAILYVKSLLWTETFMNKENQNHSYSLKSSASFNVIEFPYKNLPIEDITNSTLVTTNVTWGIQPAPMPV
T1 sequence (P05106 27-718): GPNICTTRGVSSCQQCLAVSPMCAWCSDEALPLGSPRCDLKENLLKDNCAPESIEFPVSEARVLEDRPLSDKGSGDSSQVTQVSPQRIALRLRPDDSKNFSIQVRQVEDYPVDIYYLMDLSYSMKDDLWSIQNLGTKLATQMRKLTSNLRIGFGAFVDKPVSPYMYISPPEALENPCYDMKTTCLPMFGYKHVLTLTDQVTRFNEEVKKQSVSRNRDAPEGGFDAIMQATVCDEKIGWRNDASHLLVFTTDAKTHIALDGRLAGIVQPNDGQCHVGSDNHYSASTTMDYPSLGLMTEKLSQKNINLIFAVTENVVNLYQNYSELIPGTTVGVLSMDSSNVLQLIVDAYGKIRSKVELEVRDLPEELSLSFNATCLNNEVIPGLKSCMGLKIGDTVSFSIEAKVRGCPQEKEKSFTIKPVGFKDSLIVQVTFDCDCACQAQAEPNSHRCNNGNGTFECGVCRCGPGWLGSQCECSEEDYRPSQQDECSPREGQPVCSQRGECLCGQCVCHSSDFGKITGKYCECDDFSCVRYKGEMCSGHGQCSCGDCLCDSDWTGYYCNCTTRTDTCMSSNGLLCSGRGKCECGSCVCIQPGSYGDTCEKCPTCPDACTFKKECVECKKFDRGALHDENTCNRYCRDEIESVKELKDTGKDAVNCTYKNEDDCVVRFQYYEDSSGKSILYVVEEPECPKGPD

`CC(=O)N(CC(=O)O)CP(=O)(O)O` [N-acetylglyphosate]: in series [1] (integrin αVβ3, immobilized RGD polymer, at 22 mM (highest concentration), read-out: Maximal Inhibition Achieved), the inhibition at 22000 µM is 40.6%. The IC50 in series [1] (setting [10]), in series [2] (setting [12]), in series [3] (setting [14]) and in [4] (setting [15]) was > 22 mM each time. In addition, the values for the inhibition in series [2] (setting [11]) and in series [3] (setting [13]) were 47.5% and 15%, respectively. The “Water Solubility” value in series [5] (temperature or pH not given) is reported as “slight”.
For `NCC(=O)O` [Glycine], the IC50 in series [1], in series [2], in series [3] and in [4] was > 22 mM in each case. The “Maximal Inhibition Achieved” value in series [3] was >22 (22.1 ± 3.3%).
For the compound `O=C(O)CNCP(=O)(O)O` [Glyphosate, N-(phosphonomethyl)glycine], the inhibition in [1] (setting [16]) is 100%; in series [2] (setting [11]), 44.8%; in series [3] (setting [13]), 85.7%; in series [4] (integrin αllbβ3, immobilized fibrinogen, at 22 mM, activation = higher absorbance than negative control, n. d. = not detected, read-out: Maximal Inhibition Achieved) it was 40.2%. Also, the IC50 in [1] (setting [10]) is 2.7 ± 0.5 mM; in [2] (setting [12]) it was > 22 mM; in series [3] (setting [14]), 9.7 ± 3.2 mM; in [4] (setting [15]), > 22 mM. Also, the “Inhibition of binding of αVβ3 to S-protein” value in [6] was 35.6 ± 4.4%. For the same compound, the “Inhibition of RGD-binding capability of αVβ3 integrin” value in [7] is reported as 96.3 ± 3.2%. The “Adhesion of MC3T3-E1 cells to RGD motif” value in series [8] is “significantly reduced”. Besides, the “Water Solubility” value in [5] (pH 7.0) is 157 g/L.
Regarding `CC(=O)NCC(=O)O` [Acetylglycine], the inhibition in series [1] (setting [16]) was 46.8%; in series [2] (setting [11]), 58.5%; in series [3] (setting [13]), 98.9%. Also, the half-maximal inhibitory concentration (IC50) is > 22 mM in series [1] (setting [10]), 9.2 ± 1 mM in series [2] (setting [12]), 5.8 ± 0.9 mM in series [3] (setting [14]) and > 22 mM in series [4] (setting [15]). Moreover, the “Maximal Inhibition Achieved” value is “activation” in series [4] (setting [17]) and “high activation” in series [4] (integrin αllbβ3, immobilized fibrinogen, at 22 mM, activation = higher absorbance than negative control, n. d. = not detected, listed as acetylglycine).
Consider `O=C(O)CNCC(=O)O` [Iminodiacetic acid], for which the values for the inhibition in series [1] (setting [16]), in [2] (setting [11]) and in series [3] (setting [13]) were 24.6%, 52.4% and 8%, respectively. Also, the IC50 in series [1] (setting [10]) was > 22 mM; in series [2] (setting [12]), 11.5 ± 1.5 mM; in [3] (setting [14]) it was > 22 mM; in series [4] (setting [15]) it was > 22 mM. Moreover, the “Water Solubility” value in [5] (5 °C) was 24.3 (5 °C) g/L.
For `CNCC(=O)O` [Sarcosine], the inhibition in [1] (setting [16]) is 35%; in series [2] (setting [11]) it was 37.9%; in series [3] (setting [13]), 13.4%. Besides, the IC50 in [1] (setting [10]), in series [2] (setting [12]), in series [3] (setting [14]) and in [4] (setting [15]) was > 22 mM each time. For the same compound, the “Clog Po/w” value in series [9] is reported as −3.2. Further, in series [5] (20 °C), the “Water Solubility” value was 89.1 (20 °C) g/L.
Take Glyphosate isopropylammonium salt: the “Clog Po/w” value in series [9] is −4.16. In addition, in series [5] (temperature or pH not given), the “Water Solubility” value was 1050 g/L.
With `NCP(=O)(O)O` [Aminomethylphosphonic acid (AMPA), aminomethylphosphonic acid], the inhibition in [1] (setting [16]) is 95.9%; in [2] (setting [11]), 75.3%; in [3] (setting [13]), 44.8%. Further, the IC50 in [1] (setting [10]) was 1.3 ± 0.2 mM; in series [2] (setting [12]), 1.5 ± 0.4 mM; in [3] (setting [14]), > 22 mM; in [4] (setting [15]), > 22 mM. For the same compound, the “Maximal Inhibition Achieved” value in series [4] (setting [17]) is “activation”; in [4] (integrin αllbβ3, immobilized fibrinogen, at 22 mM, activation = higher absorbance than negative control, n. d. = not detected, listed as AMPA), “activation; also recorded: activated”. In addition, the “Water Solubility” value in series [5] (20 °C) was 56 (20 °C) g/L.
